Assay results published in ChEMBL document CHEMBL3885861, “Open TG-GATES”.

Species on record: Rattus norvegicus
Assay: Open TG-GATES - Regimen: Daily Repeat
Format: toxicity, organism-based, Sprague-Dawley
Set-up: regimen Daily Repeat, gender Male, age 6 weeks
Details: in vivo, po, route gavage; for Bas / Eos / Fbg / Hb / Ht / Lym / MCH / MCHC / MCV / Mono / Neu / PT / Plat / RBC / Ret / WBC / APTT: tissue Blood; for KIDNEY_L / KIDNEY_R / KIDNEY_TOTAL: tissue Kidney; for LIVER: tissue Liver; for ALP / AST / BUN / CRE / Ca / Cl / DBIL / GLC / IP / LDH / Na / PL / RALB / TBIL / TC / TG / TP / gamma-GTP: tissue Plasma
[1] = 30 mg/kg, 72 h, dose level Middle, time 3 day
[2] = 30 mg/kg, […], dose level Middle, time 7 day
[3] = 30 mg/kg, […], dose level Middle, time 14 day
[4] = 30 mg/kg, […], dose level Middle, time 28 day
[5] = 100 mg/kg, 72 h, dose level High, time 3 day
[6] = 100 mg/kg, […], dose level High, time 7 day
[7] = 100 mg/kg, […], dose level High, time 14 day
[8] = 100 mg/kg, […], dose level High, time 28 day

## CC(=O)N1CCN(c2ccc(OCC3COC(Cn4ccnc4)(c4ccc(Cl)cc4Cl)O3)cc2)CC1 (configuration not stated) [KETOCONAZOLE]
[1]
  Bas: 0%
  Eos: 1%
  Fbg: 303.8 mg/dL
  Hb: 13.4 g/dL
  Ht: 39.7%
  Lym: 77.4%
  MCH: 21.4 pg
  MCHC: 33.8%
  MCV: 63.3 fL
  Mono: 2.4%
  Neu: 18.2%
  PT: 16.3 s
  Plat: 117.1 x10_4/uL
  RBC: 627.6 x10_4/ul
  Ret: 5.6%
  WBC: 101.1 x10_2/uL
  KIDNEY_L: 1 g
  KIDNEY_R: 1.1 g
  KIDNEY_TOTAL: 2.1 g
  LIVER: 10.5 g
  ALP: 1639 IU/L
  AST: 67.4 IU/L
  BUN: 17.8 mg/dL
  CRE: 0.1 mg/dL
  Ca: 10.8 mg/dL
  Cl: 106.4 meq/L
  DBIL: 0 mg/dL
  GLC: 181.8 mg/dL
  IP: 6.7 mg/dL
  LDH: 236.6 IU/L
  Na: 139.8 meq/L
  PL: 141.8 mg/dL
  RALB: 3.1 g/dL
  TBIL: 0.01 mg/dL
  TC: 71 mg/dL
  TG: 88.6 mg/dL
  TP: 5.7 g/dL
  gamma-GTP: 1.2 IU/L
[2]
  TERMINAL_BW: 265.9 g
  APTT: 21.8 s
  Bas: 0%
  Eos: 1%
  Fbg: 321.6 mg/dL
  Hb: 13.5 g/dL
  Ht: 39.7%
  Lym: 75.8%
  MCH: 21.2 pg
  MCHC: 34%
  MCV: 62.4 fL
  Mono: 2.4%
  PT: 16 s
  Plat: 121.4 x10_4/uL
  RBC: 636.6 x10_4/ul
  Ret: 5.4%
  WBC: 103.7 x10_2/uL
  KIDNEY_L: 1.2 g
  KIDNEY_R: 1.2 g
  KIDNEY_TOTAL: 2.3 g
  LIVER: 12.2 g
  ALP: 1565.4 IU/L
  AST: 70.4 IU/L
  BUN: 18.2 mg/dL
  CRE: 0.1 mg/dL
  Ca: 10.6 mg/dL
  Cl: 108.2 meq/L
  DBIL: 0 mg/dL
  GLC: 176.4 mg/dL
  IP: 6.9 mg/dL
  LDH: 171.8 IU/L
  Na: 142 meq/L
  PL: 145 mg/dL
  RALB: 3 g/dL
  TBIL: 0.004 mg/dL
  TC: 70.4 mg/dL
  TG: 135.4 mg/dL
  TP: 5.7 g/dL
  gamma-GTP: 1.6 IU/L
[3]
  TERMINAL_BW: 312.9 g
  APTT: 21.1 s
  Bas: 0%
  Eos: 0.8%
  Fbg: 291.8 mg/dL
  Hb: 13.4 g/dL
  Ht: 39.6%
  Lym: 76%
  MCH: 20.5 pg
  MCHC: 33.8%
  MCV: 60.7 fL
  Mono: 2.4%
  Neu: 19.2%
  PT: 16.2 s
  Plat: 126.1 x10_4/uL
  RBC: 652.8 x10_4/ul
  Ret: 4.9%
  WBC: 115.1 x10_2/uL
  KIDNEY_L: 1.3 g
  KIDNEY_R: 1.3 g
  KIDNEY_TOTAL: 2.6 g
  LIVER: 14.4 g
  ALP: 1247.8 IU/L
  AST: 65.4 IU/L
  BUN: 18.2 mg/dL
  CRE: 0.1 mg/dL
  Ca: 10.4 mg/dL
  Cl: 106.8 meq/L
  DBIL: 0 mg/dL
  GLC: 180.8 mg/dL
  IP: 6.6 mg/dL
  LDH: 194.8 IU/L
  Na: 142.2 meq/L
  PL: 140 mg/dL
  RALB: 3 g/dL
  TBIL: 0.004 mg/dL
  TC: 68.6 mg/dL
  TG: 134 mg/dL
  TP: 5.8 g/dL
  gamma-GTP: 1 IU/L
[4]
  TERMINAL_BW: 360.4 g
  APTT: 25 s
  Bas: 0%
  Eos: 1%
  Fbg: 286.6 mg/dL
  Hb: 15.2 g/dL
  Ht: 43.9%
  Lym: 76.8%
  MCH: 19.6 pg
  MCHC: 34.5%
  MCV: 56.9 fL
  Mono: 1.6%
  PT: 16.9 s
  Plat: 105.3 x10_4/uL
  RBC: 773.4 x10_4/ul
  Ret: 2.6%
  WBC: 102.4 x10_2/uL
  KIDNEY_L: 1.3 g
  KIDNEY_R: 1.4 g
  KIDNEY_TOTAL: 2.7 g
  LIVER: 15.1 g
  ALP: 1104.2 IU/L
  AST: 66.8 IU/L
  BUN: 18.4 mg/dL
  CRE: 0.2 mg/dL
  Ca: 10.4 mg/dL
  DBIL: 0 mg/dL
  GLC: 179 mg/dL
  IP: 4.9 mg/dL
  LDH: 155.2 IU/L
  Na: 142.4 meq/L
  PL: 126 mg/dL
  RALB: 3.1 g/dL
  TBIL: 0.008 mg/dL
  TC: 61.6 mg/dL
  TP: 6.1 g/dL
  gamma-GTP: 1.2 IU/L
[5]
  TERMINAL_BW: 230.7 g
  APTT: 20.5 s
  Bas: 0%
  Eos: 0.8%
  Fbg: 321 mg/dL
  Hb: 13.3 g/dL
  Ht: 39.8%
  MCH: 20.9 pg
  MCHC: 33.5%
  MCV: 62.4 fL
  Mono: 2.8%
  Neu: 16.2%
  PT: 16.2 s
  Plat: 128.4 x10_4/uL
  RBC: 639 x10_4/ul
  Ret: 5.2%
  WBC: 83.5 x10_2/uL
  KIDNEY_L: 1.1 g
  KIDNEY_R: 1 g
  KIDNEY_TOTAL: 2.1 g
  LIVER: 12.1 g
  ALP: 1481 IU/L
  AST: 63.8 IU/L
  BUN: 19.2 mg/dL
  CRE: 0.2 mg/dL
  Ca: 10.8 mg/dL
  Cl: 105.6 meq/L
  DBIL: 0 mg/dL
  GLC: 179.6 mg/dL
  IP: 7 mg/dL
  LDH: 261.8 IU/L
  Na: 141 meq/L
  PL: 133.6 mg/dL
  RALB: 3 g/dL
  TBIL: 0.004 mg/dL
  TC: 72.4 mg/dL
  TG: 73.2 mg/dL
  TP: 5.8 g/dL
  gamma-GTP: 1.6 IU/L
[6]
  TERMINAL_BW: 256.9 g
  APTT: 20.6 s
  Bas: 0%
  Eos: 0.4%
  Fbg: 302.4 mg/dL
  Hb: 12.9 g/dL
  Ht: 38.5%
  Lym: 79.4%
  MCH: 21 pg
  MCHC: 33.6%
  MCV: 62.6 fL
  Mono: 1.2%
  Neu: 17.6%
  PT: 16.1 s
  Plat: 111.5 x10_4/uL
  RBC: 616.2 x10_4/ul
  Ret: 5.5%
  WBC: 106.4 x10_2/uL
  KIDNEY_L: 1.2 g
  KIDNEY_R: 1.2 g
  KIDNEY_TOTAL: 2.4 g
  ALP: 1138 IU/L
  AST: 64.8 IU/L
  BUN: 17.2 mg/dL
  CRE: 0.1 mg/dL
  Ca: 10.8 mg/dL
  Cl: 107.6 meq/L
  DBIL: 0 mg/dL
  GLC: 189.6 mg/dL
  IP: 7 mg/dL
  LDH: 203 IU/L
  Na: 143.6 meq/L
  PL: 119.6 mg/dL
  RALB: 2.9 g/dL
  TBIL: 0 mg/dL
  TC: 62.4 mg/dL
  TG: 73.8 mg/dL
  TP: 5.8 g/dL
  gamma-GTP: 1 IU/L
[7]
  TERMINAL_BW: 298.5 g
  APTT: 20.9 s
  Bas: 0%
  Eos: 0.4%
  Fbg: 316 mg/dL
  Hb: 13.9 g/dL
  Ht: 41.6%
  Lym: 72.4%
  MCH: 20.3 pg
  MCHC: 33.5%
  MCV: 60.6 fL
  Mono: 1.4%
  Neu: 24.6%
  PT: 16.3 s
  Plat: 122.8 x10_4/uL
  RBC: 687.8 x10_4/ul
  Ret: 4.5%
  WBC: 85.7 x10_2/uL
  KIDNEY_L: 1.3 g
  KIDNEY_R: 1.3 g
  KIDNEY_TOTAL: 2.6 g
  LIVER: 15 g
  ALP: 1375.6 IU/L
  AST: 67.8 IU/L
  BUN: 16.8 mg/dL
  CRE: 0.1 mg/dL
  Ca: 10.4 mg/dL
  Cl: 106 meq/L
  DBIL: 0 mg/dL
  GLC: 177.8 mg/dL
  IP: 6.3 mg/dL
  LDH: 194.4 IU/L
  Na: 143.8 meq/L
  PL: 138.2 mg/dL
  RALB: 3.1 g/dL
  TBIL: 0.004 mg/dL
  TC: 70.4 mg/dL
  TG: 114.8 mg/dL
  TP: 6 g/dL
  gamma-GTP: 1.2 IU/L
[8]
  TERMINAL_BW: 353.3 g
  APTT: 23.2 s
  Bas: 0%
  Eos: 1.2%
  Fbg: 314.2 mg/dL
  Hb: 14.5 g/dL
  Ht: 42.3%
  Lym: 72%
  MCH: 19.1 pg
  MCHC: 34.2%
  MCV: 55.8 fL
  Mono: 1.8%
  Neu: 24%
  PT: 17.1 s
  Plat: 109.8 x10_4/uL
  RBC: 758.8 x10_4/ul
  Ret: 3%
  WBC: 86.3 x10_2/uL
  KIDNEY_L: 1.4 g
  KIDNEY_R: 1.4 g
  KIDNEY_TOTAL: 2.8 g
  LIVER: 16.1 g
  ALP: 1014.6 IU/L
  AST: 65.8 IU/L
  BUN: 16.8 mg/dL
  CRE: 0.2 mg/dL
  Ca: 10.3 mg/dL
  Cl: 106.8 meq/L
  DBIL: 0 mg/dL
  GLC: 187.6 mg/dL
  IP: 5.9 mg/dL
  LDH: 154 IU/L
  Na: 142.2 meq/L
  PL: 111.8 mg/dL
  RALB: 3.2 g/dL
  TBIL: 0.016 mg/dL
  TC: 57 mg/dL
  TG: 56.4 mg/dL
  TP: 6.1 g/dL
  gamma-GTP: 1.6 IU/L
